Tests used:
IFN-γ [1] = conditions: at 20 weeks (30 days), 5-mg/kg TRIP dose level
Procedure: Average serum IFN-γ concentrations following daily oral TRIP treatment for 30 (Week 20), 60 (Week 24), and 90 (Week 28) days at the indicated doses (mg/kg). Serum was analyzed by multiplex immunoassay 24 hours after the final TRIP dose at each time point.
Following induction of lung cancer as described (Wurz G T. et al., J. Transl. Med., 11:64 (2013)), mice were randomized into four treatment groups: Control; and TRIP (i.e., ospemifene) 5, 25, and 50 mg/kg (n=12, all groups). TRIP and control solutions were orally administered by gavage according to treatment group. After 30 days of treatment (Week 20), a total of 16 mice, four from each treatment group, were euthanized, and whole blood was collected by cardiac puncture. The remaining mice continued daily TRIP treatments. An additional 16 mice, four from each treatment group, were euthanized following 60 (Week 24) and 90 (Week 28) days of treatment, and whole blood and livers were collected. Serum samples were subjected to multiplex cytokine analysis for TH1 (IL-2, IL-12, IFN-γ, TNF-α), TH2 (IL-4, IL-5, IL-10, IL-13) and inflammatory cytokines (MIP-1α, IP-10, MIG, IL-1β, IL-6, KC).

IFN-γ [2] = test: Experiment 4: IFN-γ ELISpot after short-course TRIP and PV in lung tumor-bearing mice; assay type: in vivo, human MUC1.Tg C57BL/6 mice; conditions: short-course (16-day) TRIP 10 or 50 mg/kg + one cycle of PV
Procedure: Effect of short-course (16-day) TRIP treatment on IFN-γ immune response. […] Lymphocytes were isolated following treatment with one cycle of PV, TRIP 10 mg/kg, TRIP 50 mg/kg, or combinations (n=10-11). PV=peptide vaccine.
A total of 65 male human MUC1.Tg C57BL/6 mice underwent urethane lung tumor induction as described (Wurz G T. et al., J. Transl. Med., 11:64 (2013)) starting at approximately five weeks of age. […] Starting in Week 20, all mice in the PV treatment groups were administered eight weekly 10 μg doses by subcutaneous (s.c.) injection (100 μl) at rotating sites using a 25-gauge needle. […] All other mice received daily oral doses of the control solution. Twenty-four hours after the final dose of TRIP and 48 hours after the last dose of PV (Week 27), all mice were euthanized for the collection of serum and spleens, which were processed appropriately for ELISpot and CTL assays. For the ELISpot assay, n=4-5.

IFN-γ [3] = test: Example 6: serum IFN-γ on Day 28 in allograft-bearing mice; assay type: in vivo, C57BL/6 wild type mice; conditions: Day 28, 48 hours after final PV dose; TRIP 100 mg/kg
Procedure: Each of four weekly 100-μg injections of peptide vaccine (PV) was preceded by three daily oral doses of TRIP (100 mg/kg). All mice were implanted with breast cancer allografts on Day 0, and serum was collected on Day 28 following four weeks of treatment. […] For all treatment groups, n=8.
A total of 32 female C57BL/6 wild type mice were assigned to four treatment groups (n=8): Control; TRIP (i.e., ospemifene) 100 mg/kg; tecemotide (L-BLP25) peptide vaccine (PV) (100 μg); and TRIP 100 mg/kg combined with 100 μg PV. On Day 0 of the study, all 32 mice were subcutaneously implanted with 1.0×10^6 mouse breast cancer cells expressing the PV target antigen (BP25). Two days later, mice began a three-day regimen of once daily 100 mg/kg TRIP administered orally. On Day 5, mice were administered their first weekly 100 μg dose of PV by subcutaneous injection. This treatment schedule was repeated for a total of four weeks. […] All mice were euthanized on Day 28 for the collection of serum and spleens to assess immune response to treatment. Immune response was assessed by performing IFN-γ ELISpot.

[4] = system: regulatory T cells (Tregs); test: Experiment 5: regulatory T cells (FoxP3+/CD4+) by flow cytometry; assay type: in vivo, human MUC1.Tg C57BL/6 mice; conditions: TRIP 100 mg/kg or letrozole 0.8 mg/kg daily oral 14 days
Procedure: A total of 32 female human MUC1.Tg C57BL/6 mice, starting at approximately six weeks of age, were treated with urethane as described (Wurz G T. et al., J. Transl. Med., 11:64 (2013)). Two weeks following the final dose of urethane (Week 17), the mice were randomized into four treatment groups of approximately equal average weight (n=8, all groups): Control (no treatment); TRIP (i.e., ospemifene) 100 mg/kg; estradiol 25 μg/kg; and letrozole 0.8 mg/kg. TRIP and letrozole were prepared in DMSO and peanut oil as described above in Experiment 2 and administered daily for 14 days by oral gavage (100 μL). Estradiol was dissolved in 100% ethanol, diluted in PBS to achieve the desired concentration, and then administered daily for 14 days by s.c. injection at rotating sites using a 25-gauge needle. In Week 19, the study was terminated, 24 hours after the last treatments, and serum and spleens were collected for surface marker and Treg analyses.
After two weeks of treatment, lymphocytes were isolated from spleen. T-cell surface markers (CD4, CD8, PD-1, CD28) and regulatory T cells (Tregs) were analyzed by flow cytometry.

[5] = system: cytotoxic T lymphocyte activity; conditions: TRIP 50 mg/kg daily oral 16 days + PV
Procedure: Effects of short-course TRIP dosing regimens on cytotoxic T lymphocyte activity. Average target cell apoptosis percentages (+SEM) were assessed in control (n=10), one cycle of PV (n=11), short-course TRIP (16 days; 10 mg/kg, TRIP 10; 50 mg/kg, TRIP 50; n=11), and PV+TRIP combination (n=11) treatment groups. PV=peptide vaccine; *p<0.05.
A total of 65 male human MUC1.Tg C57BL/6 mice underwent urethane lung tumor induction as described (Wurz G T. et al., J. Transl. Med., 11:64 (2013)) starting at approximately five weeks of age. In Week 20, six weeks after the last dose of urethane, mice were randomized into six treatment groups of approximately equal average weight: Control (n=10); TRIP (i.e., ospemifene) 10 mg/kg (n=11); TRIP 50 mg/kg (n=11); tecemotide (L-BLP25) peptide vaccine (PV) alone (n=11); TRIP 10 mg/kg+PV (n=11); and TRIP 50 mg/kg+PV (n=11). Starting in Week 20, all mice in the PV treatment groups were administered eight weekly 10 μg doses by subcutaneous (s.c.) injection (100 μl) at rotating sites using a 25-gauge needle. […]
Average target cell apoptosis percentages (+SEM) were assessed in control (n=10), one cycle of PV (n=11), short-course TRIP (16 days; 10 mg/kg, TRIP 10; 50 mg/kg, TRIP 50; n=11), and PV+TRIP combination (n=11) treatment groups. […]

IFN-γ [6] = test: IFN-γ mRNA expression in Jurkat cells by qRT-PCR, normalized with GAPDH; assay type: cell-based, human
Procedure: FIG. 1. Interferon gamma (IFN-γ) and interleukin (IL)-2 expression in human Jurkat cells following exposure to TRIP in vitro. Jurkat cells (2×10^6) were treated with different concentrations of TRIP as indicated for 24 hours. (A) IFN-γ and (B) IL-2 mRNA expression levels were detected by quantitative real-time polymerase chain reaction (qRT-PCR) and normalized with the expression of GAPDH. *p<0.05, **p<0.01, ***p<0.001.
FIG. 2. Effect of tamoxifen on TRIP-induced expression of IFN-γ in vitro. Jurkat cells (2×10^6) were treated with TRIP (2.5 μM) and/or tamoxifen (2.5 μM) for 24 hours. The expression levels of IFN-γ were analyzed by qRT-PCR and normalized with GAPDH. **p<0.01, ***p<0.005.
FIG. 3. Effects of TRIP alone and in combination with trifluoperazine (TFP) or LY294002 (LY) on IFN-γ and IL-2 in human Jurkat cells in vitro. Jurkat cells (2×10^6) were pretreated with different concentrations of (A, B) TFP (0, 0.1, 1.0, 5.0, and 10.0 μM) and (C, D) LY294002 (0, 1, 5, 10, and 25 μM) for 1 hour, then incubated with medium containing 2.5 μM of TRIP for 24 hours. (A, C) IFN-γ and (B, D) IL-2 mRNA expression levels were detected by qRT-PCR and normalized with the expression of GAPDH. *p<0.05, **p<0.01, ***p<0.001.
FIG. 4. Effects of calmodulin, PI3K and MAPK inhibition on TRIP-induced expression of IFN-γ and IL-2 in human Jurkat cells in vitro. Jurkat cells (2×10^6) were pretreated with PD98059 (50 μM), TFP (10 μM) and LY294002 (25 μM) for 1 hour, then incubated with medium containing 2.5 μM of TRIP for 24 hours. (A) IFN-γ and (B) IL-2 mRNA expression levels were detected by qRT-PCR and normalized with the expression of GAPDH. **p<0.01, ***p<0.001, ****p<0.0001.
The potential immune regulating effects of TRIP and the possible mechanism(s) involved were determined with in vitro experiments examining the expression of T cell activating cytokines in human acute T cell leukemia Jurkat cells. The expression of IFN-γ and IL-2 RNA following exposure to increasing concentrations of TRIP (i.e., ospemifene) were first examined, followed by the effects of combining tamoxifen with TRIP on the expression of these cytokines. Different inhibitors of key T cell activation pathways—trifluoperazine (TFP), an inhibitor of calmodulin, LY294002, an inhibitor of PI3K, and PD98059, a MAPK inhibitor—in combination with TRIP were assessed for their effects on TRIP-induced expression of IFN-γ and IL-2 in Jurkat cells.
Jurkat cells (2.0×10^6) were treated with different concentrations of TRIP as indicated on the x-axis for 24 hours. (A) IFN-γ and (B) IL-2 mRNA expression levels were detected by quantitative real-time polymerase chain reaction (qRT-PCR) and normalized with the expression of GAPDH. *p<0.05, **p<0.01, ***p<0.001.
The expression levels of IFN-γ were analyzed by qRT-PCR and normalized with GAPDH. **p<0.01, ***p<0.001.
T cell activation requires multiple signals including PI3K, MAPK and calcium signaling pathways, and in order to identify the potential mechanism through which TRIP affects immune activation, Jurkat cells (2.0×10^6) were pretreated with different concentrations of TFP (0, 0.1, 1.0, 5.0 and 10.0 μM) (A, B) or LY294002 (0, 1, 5, 10 and 25 μM) (C, D) for one hour, then incubated with medium containing 2.5 μM TRIP for 24 hours. IFN-γ and IL-2 expression levels were detected by qRT-PCR and normalized with the expression of GAPDH. *p<0.05, **p<0.01, ***p<0.001.
Jurkat cells (2×10^6) were pretreated with PD98059 (50 μM), TFP (10 μM) or LY294002 (25 μM) for one hour, then incubated with medium containing 2.5 μM TRIP for 24 hours. (A) IFN-γ and (B) IL-2 mRNA expression levels were detected by qRT-PCR and normalized with expression of GAPDH. **p<0.01, ***p<0.001, ****p<0.0001.
The effects on T cell activation of different functional group substitutions on the TRIP chemical structure (Formula Ia) were examined by measuring the expression of IFN-γ and IL-2 RNA in human acute T cell leukemia Jurkat cells in vitro. […]

Compound: OCCOc1ccc(/C(=C(/CCCl)c2ccccc2)c2ccccc2)cc1 [TRIP, Z-2-[4-(4-chloro-1,2-diphenyl-but-1-enyl)-phenoxy]ethanol]
- serum IFN-γ (IFN-γ [1]): elevated
- IFN-γ immune response by ELISpot, TRIP in combination with the PV (IFN-γ [2]): equivalent increase
- serum IFN-γ compared to the control and TRIP alone treatment groups, TRIP + PV (IFN-γ [3]): significantly increased
- Tregs (FoxP3+/CD4+) compared to estradiol treatment [4]: significantly inhibited
- induction of CTL activity, PV with short-course TRIP compared to TRIP or PV treatments alone [5]: significantly boosted
- expression of IFN-γ compared to control, TRIP+tamoxifen (IFN-γ [6]; Jurkat cells, TRIP 2.5 μM plus tamoxifen 2.5 μM, 24 hours (FIG. 2)): significantly increased
- IFN-γ RNA expression compared to control (IFN-γ [6]; Jurkat cells, different concentrations of TRIP, 24 hours, dose-dependent (FIG. 1A)): significantly induced
- expression of IFN-γ compared to control (IFN-γ [6]; Jurkat cells, single agent 2.5 μM, 24 hours (FIG. 2)): significantly increased
- IFN-γ Expression (IFN-γ [6]; mRNA in Jurkat cells in vitro, relative to control sample without TRIP compound): +++ (strong increase)
